# Patent publication US9527857B2, “HSPC-sparing treatments for RB-positive abnormal cellular proliferation” (G1 Therapeutics, Inc., priority 2013, dated 2016)
# Key:
# [1] = tested on: MCF7 (breast adenocarcinoma, Rb-positive); assay: Cellular proliferation assay (CellTiter-Glo), MCF7; type: cell-based
# Procedure: The MCF7 cells were seeded in Costar (Tewksbury, Mass.) 3903 96 well tissue culture treated white walled/clear bottom plates. A nine point dose response dilution series from 10 uM to 1 nM was performed and cell viability was determined after six days of compound treatment as indicated using the CellTiter-Glo® luminescent cell viability assay (CTG; Promega, Madison, Wis., United States of America) following the manufacturer's recommendations. Plates were read on a BioTek (Winooski, Vt.) Syngergy2 multi-mode plate reader. The Relative Light Units (RLU) were plotted as a result of variable molar concentration and data was analyzed using Graphpad (LaJolla, Calif.) Prism 5 statistical software to determine the EC50 for each compound.
# (§1) Cellular proliferation assays were conducted using the following cancer cell lines: MCF7 (breast adenocarcinoma—Rb-positive), ZR-75-1 (breast ductal carcinoma—Rb-positive), H69 (human small cell lung cancer—Rb-negative) cells, or A2058 (human metastatic melanoma cells—Rb-negative). These cells were seeded in Costar (Tewksbury, Mass.) […] 96 well tissue culture treated white walled/clear bottom plates. Cells were treated with the compounds of Table 1 as nine point dose response dilution series from 10 uM to 1 nM. Cells were exposed to compounds and then cell viability was determined after either four (H69) or six (MCF7, ZR75-1, A2058) days as indicated using the CellTiter-Glo® luminescent cell viability assay (CTG; Promega, Madison, Wis., United States of America) following the manufacturer's recommendations. Plates were read on BioTek (Winooski, Vt.) Syngergy2 multi-mode plate reader. The Relative Light Units (RLU) were plotted as a result of variable molar concentration and data was analyzed using Graphpad (LaJolla, Calif.) Prism 5 statistical software to determine the EC50 for each compound.
# CDK4/CyclinD1 = CDK4/CyclinD1 (Homo sapiens (Human), UniProt P11802); assay: CDK4/cyclinD1 kinase assay (Nanosyn, microfluidic Caliper platform); type: biochemical; conditions: ATP at Km (200 uM); read-out: CDK4/CycD1 IC50
# Procedure: (§2) Selected compounds disclosed herein were tested in CDK4/cyclinD1, CDK2/CycA and CDK2/cyclinE kinase assays by Nanosyn (Santa Clara, Calif.) to determine their inhibitory effect on these CDKs. The assays were performed using microfluidic kinase detection technology (Caliper Assay Platform). The compounds were tested in 12-point dose-response format in singlicate at Km for ATP. Phosphoacceptor substrate peptide concentration used was 1 μM for all assays and Staurosporine was used as the reference compound for all assays. Specifics of each assay are as described below:
# CDK4/CyclinD1: Enzyme concentration: 1 nM; ATP concentration: 200 μM; Incubation time: 10 hr.
# [2] = tested on: ZR-75-1 (breast ductal carcinoma, Rb-positive); assay: Cellular proliferation assay (CellTiter-Glo), ZR-75-1; type: cell-based
# Procedure: as §1
# CDK2/CyclinE = CDK2/CyclinE (Homo sapiens (Human), UniProt P24941); assay: CDK2/cyclinE kinase assay (Nanosyn, microfluidic Caliper platform); type: biochemical
# Procedure: as §2, with “assays.” for “assays. Specifics of each assay are as described below:”
# CDK2/CyclinA = CDK2/CyclinA (Homo sapiens (Human), UniProt P24941); assay: CDK2/CycA kinase assay (Nanosyn, microfluidic Caliper platform); type: biochemical
# Procedure: as §2
# CDK2/CyclinA: Enzyme concentration: 0.2 nM; ATP concentration: 50 μM; Incubation time: 3 hr.
# HSPCs (LKS+) = assay: Bone marrow HSPC proliferation by EdU incorporation and flow cytometry; type: in vivo; conditions: 150 mg/kg oral gavage, mice
# Procedure: . JCNI 2012; 104(6):476-487 (FIG. 2A). […].
# Mice were then sacrificed at the indicated times (0, 12, 24, 36, or 48 hours following compound administration), and bone marrow was harvested (n=3 mice per time point), as previously described (Johnson et al. J. Clin. Invest. (2010) 120(7), 2528-2536). Four hours before the bone marrow was harvested, mice were treated with 100 μg of EdU by intraperitoneal injection (Invitrogen). Bone marrow mononuclear cells were harvested and immunophenotyped using previously described methods and percent EdU positive cells were then determined (Johnson et al. J. Clin. Invest. (2010) 120(7), 2528-2536). In brief, HSPCs were identified by expression of lineage markers (Lin−), Sca1 (S+), and c-Kit (K+).
# Four hours before animals were sacrificed and the bone marrow was harvested, mice were treated with 100 μg of EdU by intraperitoneal injection. Three mice per group were sacrificed at 12 hours and the remaining three animals per group were sacrificed at 24 hours. Results are shown in FIG. 5A as the ratio of EdU positive cells for treated animals at 12 or 24 hour time points compared to control.
# Further experiments were completed with Compound T examining dose response and longer periods of compound treatment. […] […].
# Both compounds were administered at 150 mg/kg by oral gavage. One hour prior to harvesting bone marrow, EdU was IP injected to label cycling cells. Bone marrow was harvested at 12, 24, 36, and 48 hours after compound treatment and the percentage of EdU positive HSPC cells was determined at each time point.
# [3] = Mouse pharmacokinetics (oral gavage / intravenous); type: in vivo, mice; conditions: plasma, 30 mg/kg, read-out: F (oral bioavailability)
# Procedure: Blood samples were taken at 0, 0.25, 0.5, 1.0, 2.0, 4.0, and 8.0 hours post dosing and the plasma concentrations were determined by HPLC.
# [4] = tested on: MMTV-c-neu (Rb-positive) tumors; assay: MMTV-c-neu HER2-driven (Rb-positive) luminal breast cancer mouse model; type: in vivo, mice
# Description: A HER2-driven model (Rb-positive) of breast cancer (Muller W J, Sinn E, Pattengale P K, Wallace R, Leder P. Single-step induction of mammary adenocarcinoma in transgenic mice bearing the activated c-neu oncogene. Cell 1988; 54: 105-15), that expresses c-neu (the mouse ortholog of human HER2) driven by the MMTV promoter was used in the following example. This model was chosen because previous studies in murine (Yu Q, Geng Y, Sicinski P. Specific protection against breast cancers by cyclin D1 ablation. Nature 2001; 411: 1017-21; Landis M W, Pawlyk B S, Li T, Sicinski P, Hinds P W. Cyclin D1-dependent kinase activity in murine development and mammary tumorigenesis. Cancer Cell 2006; 9: 13-22; Reddy H K, Mettus R V, Rane S G, Grana X, Litvin J, Reddy E P. Cyclin-dependent kinase 4 expression is essential for neu-induced breast tumorigenesis. Cancer Res 2005; 65: 10174-8; Yu Q, Sicinska E, Geng Y, Ahnstrom M, Zagozdzon A, Kong Y, et al. Requirement for CDK4 kinase function in breast cancer. Cancer Cell 2006; 9: 23-32.) and human HER2-positive breast cancer (An H X, Beckmann M W, Reifenberger G, Bender H G, Niederacher D. Gene amplification and overexpression of CDK4 in sporadic breast carcinomas is associated with high tumor cell proliferation. Am J Pathol 1999; 154: 113-8; Samady L, Dennis J, Budhram-Mahadeo V, Latchman DS. Activation of CDK4 gene expression in human breast cancer cells by the Brn-3b POU family transcription factor. Cancer Biol Ther 2004; 3: 317-23; Takano Y, Takenaka H, Kato Y, Masuda M, Mikami T, Saegusa M, et al. Cyclin D1 overexpression in invasive breast cancers: correlation with cyclin-dependent kinase 4 and oestrogen receptor overexpression, and lack of correlation with mitotic activity.
# MMTV-neu mice were generated and observed post-lactation, with tumors observed with a median latency of approximately 25 weeks. Mice were enrolled in therapy studies when tumors reached a standard size (50-60 mm3) that permitted easy serial assessment. […] Tumor volumes were calculated by the formula, Volume=[(width)^2×length]/2. Tumor-bearing mice were euthanized at the indicated times due to predefined morbidity, tumor ulceration, or a tumor size of more than 1.5 cm in diameter.
# Tumors were serially assessed weekly using caliper measurements. Therapeutic intervention began once tumors reached 40-64 mm^3. Tumor volume was calculated using the formula […]. All three compounds were administered orally via medicated diets (100 mg/kg/d). Medicated diets were administered for 28 consecutive days and then stopped. RECIST criteria were used to assess objective response rates.
# CDK4/CyclinD1, sequence (P11802 whole entry, species assumed): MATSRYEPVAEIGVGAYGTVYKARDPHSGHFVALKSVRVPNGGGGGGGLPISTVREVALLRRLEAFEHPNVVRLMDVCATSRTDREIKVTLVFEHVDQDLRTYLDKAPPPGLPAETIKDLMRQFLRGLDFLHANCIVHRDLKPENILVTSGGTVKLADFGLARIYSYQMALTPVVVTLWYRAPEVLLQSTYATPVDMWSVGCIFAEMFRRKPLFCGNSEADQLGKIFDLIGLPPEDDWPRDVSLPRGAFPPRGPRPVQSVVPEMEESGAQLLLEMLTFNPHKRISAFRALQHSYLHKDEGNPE
# CDK4/CyclinD1, sequence (P24385 whole entry partner, species assumed): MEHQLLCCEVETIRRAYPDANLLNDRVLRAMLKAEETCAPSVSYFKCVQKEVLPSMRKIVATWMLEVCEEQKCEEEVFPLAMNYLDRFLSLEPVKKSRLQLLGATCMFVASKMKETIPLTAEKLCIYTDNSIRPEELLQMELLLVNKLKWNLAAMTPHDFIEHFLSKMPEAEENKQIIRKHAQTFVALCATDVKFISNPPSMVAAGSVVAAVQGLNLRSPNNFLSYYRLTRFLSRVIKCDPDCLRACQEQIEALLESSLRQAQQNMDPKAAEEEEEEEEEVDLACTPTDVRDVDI
smiles,measurement,setting,value
CN1CCN(C(=O)c2ccc(Nc3ncc4cc5n(c4n3)C3(CCCC3)CNC5=O)nc2)CC1 [BBB],EC50,"[1]; Homo sapiens, MCF7, 144 h, six days",123 nM
CC(C)(O)CN1CCN(c2ccc(Nc3ncc4cc5n(c4n3)C3(CCCC3)CNC5=O)nc2)CC1 [EEE],IC50,CDK4/CyclinD1,0.2 nM
CC1(C)CN(c2ccc(Nc3ncc4cc5n(c4n3)C3(CCCCC3)CNC5=O)nc2)CCN1CC1CC1 [H],inhibition of cellular proliferation of ZR75-1 cells (FIGS. 25-28),[2],significant inhibition of cellular proliferation
same,inhibition of cellular proliferation of MCF-7 cells (FIGS. 21-24),[1],significant inhibition of cellular proliferation
C[C@@H]1CN(c2ccc(Nc3ncc4cc5n(c4n3)C3(CCCCC3)CNC5=O)nc2)C[C@H](C)N1C[C@@H](C)O [MM],inhibition of cellular proliferation of ZR75-1 cells (FIGS. 25-28),[2],significant inhibition of cellular proliferation
same,inhibition of cellular proliferation of MCF-7 cells (FIGS. 21-24),[1],significant inhibition of cellular proliferation
CC1CN(c2ccc(Nc3ncc4cc5n(c4n3)C3(CCCCC3)CNC5=O)nc2)C[C@@H](C)N1CC1CC1 (some centres unmarked) [OO],inhibition of cellular proliferation of ZR75-1 cells (FIGS. 25-28),[2],significant inhibition of cellular proliferation
same,inhibition of cellular proliferation of MCF-7 cells (FIGS. 21-24),[1],significant inhibition of cellular proliferation
CC1CN(c2ccc(Nc3ncc4cc5n(c4n3)C3(CCCC3)CNC5=O)nc2)CCN1CCC(C)(C)C (centres unmarked) [PPP],Fold Selectivity (CDK2/CycE/CDK4),CDK2/CyclinE,21263
same,IC50,"CDK2/CyclinE; ATP at Km (100 uM), read-out: CDK2/CycE IC50",16500 nM
same,IC50,CDK4/CyclinD1,0.8 nM
same,Fold Selectivity (CDK2/CycA/CDK4),CDK2/CyclinA,3402
same,IC50,CDK2/CyclinA; ATP at Km (50 uM),2640 nM
O=C1NCC2(CCCCC2)n2c1cc1cnc(Nc3ccc(N4CCNCC4)cn3)nc12 [Q],EdU incorporation into HSPCs at 12 and 24 hours (FIG. 5A),HSPCs (LKS+),some reduction at 12 hours and started to return to baseline at 24 hours
same,inhibition of cellular proliferation of ZR75-1 cells (FIGS. 25-28),[2],significant inhibition of cellular proliferation
same,inhibition of cellular proliferation of MCF-7 cells (FIGS. 21-24),[1],significant inhibition of cellular proliferation
same,bioavailability,[3],2%
O=C1NCC2(CCCCC2)n2c1cc1cnc(Nc3ccc(N4CCC(N5CCOCC5)CC4)cn3)nc12 [U],inhibition of cellular proliferation of ZR75-1 cells (FIGS. 25-28),[2],significant inhibition of cellular proliferation
same,inhibition of cellular proliferation of MCF-7 cells (FIGS. 21-24),[1],significant inhibition of cellular proliferation
same,bioavailability,[3],67%
same,tumor volume during a 28 day course of therapy,[4]; 100 mg/kg/d in chow,marked decrease in tumor volume
same,objective response rate,"[4]; 100 mg/kg/day medicated diet, 28 days, RECIST criteria",100%
CCC(C)[C@@H]1CNC(=O)c2cc3cnc(Nc4ccc(N5CCNCC5)cn4)nc3n21 (some centres unmarked) [VVV],Fold Selectivity (CDK2/CycE/CDK4),CDK2/CyclinE,589
